“Also recorded” adds a separate entry of the source. Like-named read-outs stand apart in the source and are kept apart here.
Assays:
GFP-AR = conditions: read-out: Nuclear Translocation EC50, cited from earlier work
[1] = test system: GFP-PRER (chimeric progesterone receptor with ERα DBD); conditions: result in words; cited from earlier work
[2] = target: T1, GFP-ARER (chimeric androgen receptor with ERα DBD) (Homo sapiens, UniProt P10275, A574V/A587S/A588I/A597P/A623V/C570Y/D601Q/DEL544-554/E566Y/E589Q/F607N/G564N/G578E/I562V/K558R/K591H/K593D/L561A/L575W/L595M/L627K/N611S/P555K/P556E/P613Q/Q557T/Q592N/R599T/S579G/S598A/S614A/T542S/T559Y/T576S/T626M/V582A); assay: GFP-ARER:PRL-HeLa high content analysis assay; type: cell-based
T1 sequence (P10275 with tags, fused parts or gaps T542S/DEL544-554/P555K/P556E/Q557T/K558R/T559Y/L561A/I562V/G564N/E566Y/C570Y/A574V/L575W/T576S/G578E/S579G/V582A/A587S/A588I/E589Q/K591H/Q592N/K593D/L595M/A597P/S598A/R599T/D601Q/F607N/N611S/P613Q/S614A/A623V/T626M/L627K): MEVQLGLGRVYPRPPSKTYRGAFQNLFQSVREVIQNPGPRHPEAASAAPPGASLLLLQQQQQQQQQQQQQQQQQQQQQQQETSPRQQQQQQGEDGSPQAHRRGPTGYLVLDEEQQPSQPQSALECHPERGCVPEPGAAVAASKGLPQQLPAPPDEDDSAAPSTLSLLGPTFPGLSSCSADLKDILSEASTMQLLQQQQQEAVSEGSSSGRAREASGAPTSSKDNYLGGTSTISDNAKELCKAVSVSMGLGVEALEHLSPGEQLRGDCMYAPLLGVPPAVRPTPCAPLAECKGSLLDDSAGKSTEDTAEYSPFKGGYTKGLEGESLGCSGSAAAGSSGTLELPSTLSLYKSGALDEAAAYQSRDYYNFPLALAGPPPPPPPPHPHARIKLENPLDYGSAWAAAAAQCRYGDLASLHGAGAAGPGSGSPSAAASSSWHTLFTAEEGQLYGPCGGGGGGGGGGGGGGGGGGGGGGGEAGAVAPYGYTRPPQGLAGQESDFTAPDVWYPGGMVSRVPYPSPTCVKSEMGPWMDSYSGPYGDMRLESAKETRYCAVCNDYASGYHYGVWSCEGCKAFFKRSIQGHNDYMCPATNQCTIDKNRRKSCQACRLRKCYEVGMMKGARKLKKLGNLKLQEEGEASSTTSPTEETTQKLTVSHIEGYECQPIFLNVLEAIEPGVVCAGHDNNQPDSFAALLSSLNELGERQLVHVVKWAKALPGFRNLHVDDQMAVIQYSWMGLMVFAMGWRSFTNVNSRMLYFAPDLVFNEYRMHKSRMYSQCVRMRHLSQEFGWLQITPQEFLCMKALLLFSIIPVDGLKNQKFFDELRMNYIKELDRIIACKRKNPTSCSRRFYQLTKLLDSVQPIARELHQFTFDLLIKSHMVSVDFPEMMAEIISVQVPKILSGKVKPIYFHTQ

[3] = AUC normalized to vehicle and DHT controls, result in words
[4] = GFP-ARER:PRL-HeLa, 2 hours, result in words

Question: With C[C@]12CCC(=O)C[C@@H]1CC[C@@H]1[C@@H]2CC[C@]2(C)[C@@H](O)CC[C@@H]12 [DHT, 5α-dihydrotestosterone] as the molecule, how does the EC50 (GFP-AR; GFP-AR:HeLa) read?
Answer: 11 ± 2 nM

Question: With CC#C[C@]1(O)CC[C@H]2[C@@H]3CCC4=CC(=O)CCC4=C3[C@@H](c3ccc(N(C)C)cc3)C[C@@]21C [RU486] as the molecule, how does the “visible chromatin binding in the GFP-PRER:PRL-HeLa cell model” value [1] read?
Answer: induces visible chromatin binding

Question: Which “visible chromatin binding in the GFP-PRER:PRL-HeLa cell model” value [1] does the source give for CN(C)c1ccc([C@H]2C[C@]3(C)[C@@H](CC[C@]3(O)CCCO)[C@@H]3CCC4=CC(=O)CCC4=C32)cc1 [ZK98299] here?
Answer: does not

Question: Which results are given for C[C@]12CC[C@@H]3c4ccc(O)cc4CC[C@H]3[C@@H]1CCC2=O [estrone]?
Answer: AUC score for nuclear translocation, chromatin binding, and receptor stabilization (k-means cluster) [2, 3]: low/moderate AUC score; GFP-ARER nuclear translocation [2, 4]: strongest responders; visible chromatin binding (PRL array spot) by GFP-ARER [2, 4]: induce a visible spot indicating chromatin binding

Question: With CC(C)(O)C(=O)Nc1ccc([N+](=O)[O-])c(C(F)(F)F)c1 [hydroxyflutamide] as the molecule, how does the GFP-ARER nuclear translocation [2] read?
Answer: strongest responders; also recorded: induced GFP-ARER nuclear translocation

Question: What about the “nuclear translocation AUC score (k-means Cluster 3)” value [2] of the same molecule?
Answer: stronger AUC scores

Question: What about the “visible chromatin binding (PRL array spot) by GFP-ARER” value [2] of the same molecule?
Answer: undetectable evidence of chromatin binding

Question: For CC12CC1(C)C(=O)N(c1cc(Cl)cc(Cl)c1)C2=O (stereo not shown) [promycidone, procymidone], which “nuclear translocation AUC score (k-means Cluster 3)” value [2, 3] is on record?
Answer: stronger AUC scores

Question: And the GFP-ARER nuclear translocation [2, 4]?
Answer: strongest responders

Question: With Cc1cc(C(C)(C)c2cc(C)c(O)c(C)c2)cc(C)c1O [tetramethyl-bisphenol A] as the molecule, how does the nuclear translocation response ([2]; supplemented ATSDR chemicals and mixtures, 0.1 nM to 10 μM (chemicals), 200-fold to 200,000-fold dilution (mixtures), 2 hours) read?
Answer: 10-12 % of DHT response
